US11564924B2, “Pharmaceutical composition formed by combining pyridoxamine compound and thiamine compound” (RENASCIENCE CO., LTD., priority 2014, dated 2023)

What was measured:
[1] = Blood kinetics of pyridoxamine compound in people with reduced renal function; type: in vivo, human; conditions: 150 mg pyridoxamine dihydrochloride oral
Experimental: As described in Experiment Example 1 above, administration of a pyridoxamine compound increases not only the blood pyridoxamine concentration, but also the blood pyridoxal concentration. Rather, in blood, the pyridoxal concentration was higher than the pyridoxamine concentration. Thus, changes in the serum concentrations of pyridoxamine, pyridoxal, pyridoxine, and 4-pyridoxic acid after administration of a pyridoxamine compound were observed over time.
More specifically, 150 mg of pyridoxamine dihydrochloride was orally administered to each of six people with reduced renal function (subjects) (average age: 56 years old, average body weight: 67 kg). Blood was collected 0.5, 1, 1.5, 2, 2.5, 3, 4, 5, 6, 8, 10, and 12 hours after the administration, and the serums were collected. Measurement of the serum concentrations of pyridoxamine, pyridoxal, pyridoxine, and 4-pyridoxic acid was outsourced to Shin Nippon Biomedical Laboratories, Ltd.

[2] = test system: schizophrenia patients; assay: Total PANSS score in schizophrenia patients given the pyridoxamine compound; type: in vivo, human; conditions: for Change from baseline in total PANSS score, Maximum / Change from baseline in total PANSS score, Median / Change from baseline in total PANSS score, Minimum / Change from baseline in total PANSS score, Mean change: FAS; for Change from baseline in total PANSS score, Mean change: 1200-2400 mg per day oral
Source text: The target subjects (subjects) of this test (administration of a pyridoxamine compound; hereinafter, this is also referred to as “drug administration”) were patients who were diagnosed with schizophrenia and met all of the following conditions (1) to (3):
Drug administration was initiated for nine subjects from whom consent was obtained. The observation period was defined as the period from the day on which consent was obtained (Day −14) to the day 2 weeks after the day of consent (Day 0), and the initial day of drug administration was defined as Day 1. The data of Day 1 is data immediately before the start of administration of the pyridoxamine compound. The drug administration period was defined as the 24-week period from the start of drug administration (Day 1 to Day 169).
In the drug administration, pyridoxamine dihydrochloride was used as the pyridoxamine compound and orally administered in an amount of 1200 mg, 1800 mg, or 2400 mg per day (administered three times a day, morning, noon, and before bedtime, in an amount of 400 mg, 600 mg, or 800 mg each time). In the drug administration period, the dose was increased or decreased within the above range according to the condition of each patient.
The effect of administration of the pyridoxamine compound (drug administration) was evaluated according to the Positive and Negative Syndrome Scale (PANSS) score and the concentration of pentosidine in blood of the schizophrenia patients.
The PANSS score was determined by SCI-PANSS, which uses a structured interview, according to the Positive and Negative Syndrome Scale (PANSS) manual (translated by Hiroshi Yamada, Kanji Masui, and Hirotsugu Kikumoto; Tokyo: Seiwa Shoten Co., Ltd., 1991). An interview for evaluation was conducted for 30 evaluation items. Each item was scored on a scale of 1 to 7. The sum of the scores was calculated, and the difference between the PANSS score on Day 1 and the PANSS score on each test day was determined. […] The subjects were prohibited from taking hypnotic drugs or antianxiety drugs within 4 hours before PANSS evaluation.

[3] = test system: vitamin B1 deficiency; assay: Prevention of vitamin B1 deficiency by pyridoxamine compound in combination with thiamine compound; type: in vivo, human; conditions: seven schizophrenia patients; pyridoxamine dihydrochloride 1200 to 1800 mg per day oral for 24 weeks, with fursultiamine 75 mg/day oral from 2 to 21 weeks after start
[4] = Serum pyridoxamine and pyridoxal concentrations in schizophrenia patients during drug administration; type: in vivo, human
Experimental: Measurement of the serum pyridoxamine concentration, the serum pyridoxal concentration, and the serum pyridoxine concentration was outsourced to SRL Inc. or Mitsubishi Chemical Medience Corporation (now LSI Medience Corporation).
Pyridoxamine dihydrochloride was orally administered as a pyridoxamine compound to schizophrenia patients daily, three times a day (morning, noon, and before bedtime) in an amount of 400 mg or 600 mg each time (daily dose of pyridoxamine: about 830 mg or 1250 mg) according to the protocols shown in FIG. 2 (described as “PM dose (mg/one time)” in FIG. 2).

[5] = test system: vitamin B1 in human whole blood; assay: In vitro effect on vitamin B1 concentration in human whole blood; conditions: human whole blood, 5, 50, 500 μg/mL, 37° C.
Source text: In addition, as described in Experiment Example 1 and Experiment Example 2, administration of a pyridoxamine compound increases not only the serum pyridoxamine concentration, but also the serum pyridoxal concentration, and thus, pyridoxamine and pyridoxal were both used as test substances for the investigation.
Blood was collected from a human using EDTA⋅2K as an anticoagulant. In addition, pyridoxamine dihydrochloride (Sigma-Aldrich Japan) was used as pyridoxamine, and pyridoxal hydrochloride (Nacalai Tesque, Inc.) was used as pyridoxal. They were dissolved at 0.5, 5, and 50 mg/mL in physiological saline to prepare test solutions. 10 μL of each test solution was individually added per mL of the whole blood collected above (test samples). The final concentrations of each test substance in the test samples were 5, 50, 500 μg/mL. Further, a vehicle was prepared by adding 10 μl of physiological saline to 1 ml of the whole blood. The vehicle and the test samples were incubated at 37° C. for 1 hour or 16 hours and then immediately frozen. Measurement of the vitamin B1 concentrations in the whole blood before the start of the incubation to which neither the physiological saline nor any test solution was added (baseline: indicated by “BL” in FIG. 4), and in the vehicle and in each test sample after the incubation, was outsourced to SRL Inc., and the measurement was performed using LC/MS/MS.

change in the concentration of pyridoxine (PN) ([1]; serum up to 12 hours): No large change
time after administration at which the serum concentration of pyridoxamine (unchanged form) peaked ([1]; six people with reduced renal function): 2 h
serum pyridoxamine concentration, times higher than at the start of drug administration ([4]; patient ID No. 3, 4 weeks after the start of drug administration): about 7700 times
serum pyridoxamine concentration, times higher than at the start of drug administration ([4]; patient ID No. 6, 8 weeks after the start of drug administration): about 2100 times
Compound: Cc1ncc(CO)c(CN)c1O.Cl.Cl [pyridoxamine dihydrochloride]
Change from baseline in total PANSS score, Maximum ([2]; Day 15 (2 w)): 12
Change from baseline in total PANSS score, Median ([2]; Day 15 (2 w)): 3.0
Change from baseline in total PANSS score, Minimum ([2]; Day 15 (2 w)): −44
Change from baseline in total PANSS score, Mean change ([2]; Day 15 (2 w)): −3.7
Change from baseline in total PANSS score, Maximum ([2]; Day 29 (4 w)): 10
Change from baseline in total PANSS score, Median ([2]; Day 29 (4 w)): 1.0
Change from baseline in total PANSS score, Minimum ([2]; Day 29 (4 w)): −49
Change from baseline in total PANSS score, Mean change ([2]; Day 29 (4 w)): −4.4
Change from baseline in total PANSS score, Maximum ([2]; Day 57 (8 w)): 13
Change from baseline in total PANSS score, Median ([2]; Day 57 (8 w)): 1.0
Change from baseline in total PANSS score, Minimum ([2]; Day 57 (8 w)): −58
Change from baseline in total PANSS score, Mean change ([2]; Day 57 (8 w)): −5.0
Change from baseline in total PANSS score, Maximum ([2]; Day 85 (12 w)): 21
Change from baseline in total PANSS score, Median ([2]; Day 85 (12 w)): −3.0
Change from baseline in total PANSS score, Minimum ([2]; Day 85 (12 w)): −65
Change from baseline in total PANSS score, Mean change ([2]; Day 85 (12 w)): −7.3
Change from baseline in total PANSS score, Maximum ([2]; Day 113 (16 w)): 8
Change from baseline in total PANSS score, Median ([2]; Day 113 (16 w)): −5.0
Change from baseline in total PANSS score, Minimum ([2]; Day 113 (16 w)): −69
Change from baseline in total PANSS score, Mean change ([2]; Day 113 (16 w)): −12.2
Change from baseline in total PANSS score, Maximum ([2]; Day 141 (20 w)): 17
Change from baseline in total PANSS score, Median ([2]; Day 141 (20 w)): −1.5
Change from baseline in total PANSS score, Minimum ([2]; Day 141 (20 w)): −64
Change from baseline in total PANSS score, Mean change ([2]; Day 141 (20 w)): −9.6
Change from baseline in total PANSS score, Maximum ([2]; Day 169 (24 w)): 14
Change from baseline in total PANSS score, Median ([2]; Day 169 (24 w)): −7.5
Change from baseline in total PANSS score, Minimum ([2]; Day 169 (24 w)): −69
Change from baseline in total PANSS score, Mean change ([2]; Day 169 (24 w)): −11.4
Change from baseline in total PANSS score, Maximum ([2]; Final evaluation time point): 14
Change from baseline in total PANSS score, Median ([2]; Final evaluation time point): −5.0
Change from baseline in total PANSS score, Minimum ([2]; Final evaluation time point): −69
Change from baseline in total PANSS score, Mean change ([2]; Final evaluation time point): −10.6
PANSS score decreased by an average of ([2]; day 15 after the start of drug administration (Day 15)): 3.7 points
PANSS score decreased by an average of ([2]; day 113 after the start of drug administration (Day 113)): 12.2 points
effect on the symptom of schizophrenia ([2]; schizophrenia patients, 24-week administration): effective in improving the symptom of schizophrenia
findings suggestive of vitamin B1 deficiency [3]: no findings suggestive of vitamin B1 deficiency were observed in any of the seven schizophrenia patients
change in whole blood vitamin B1 concentration ([5]; 1 hour incubation): no changes
change in whole blood vitamin B1 concentration ([5]; 16 hours incubation): decrease was similar to that in the vehicle
